Laboratory results taken from US20060052447A1, “Novel substituted arylhexadienoic acids and esters thereof which can be used for the treatment and prevention of diabetes, dyslipidaemia and atherosclerosis, pharmaceutical compositios comprising them and processes for the preparation of them” (Merck Patent GmbH, priority 2002, published 2006).

Key:
Assay type in all cases: cell-based
[1] = molecular target: T1, chimeric protein PPARα-Gal4 (Homo sapiens, UniProt Q07869); experiment: PPAR activation, Gal4 chimera luciferase reporter in co-transfected CV-1 cells; conditions: 50 μM; CV-1 cells (monkey kidney cells); 18 hours contact; relative to control cells without product
T1 construct: expressed in transfected cells; host or cells: CV-1 cells (monkey kidney cells)
T1 sequence (Q07869 239-466 limits assumed): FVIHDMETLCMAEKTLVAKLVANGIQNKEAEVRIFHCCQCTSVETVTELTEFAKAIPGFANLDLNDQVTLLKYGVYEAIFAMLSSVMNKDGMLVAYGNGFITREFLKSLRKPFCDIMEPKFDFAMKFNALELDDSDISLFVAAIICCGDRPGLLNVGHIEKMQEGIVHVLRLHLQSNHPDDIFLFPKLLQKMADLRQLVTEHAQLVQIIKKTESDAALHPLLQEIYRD
Experimental: (§1) The measurement of the PPAR activation was performed according to a technique described by Lehmann et al. (1995, J. Biol. Chem. 270: 12953-12956).
(§2) CV-1 cells (monkey kidney cells) are co-transfected with an expression vector for the chimeric proteins PPARα-Gal4 or PPARγ-Gal4 and with a “reporter” plasmid that allows the expression of the luciferase gene placed under the control of a promoter containing Gal4 response elements.
(§3) The cells are inoculated in 96-well microplates and co-transfected using a commercial reagent with the reporter plasmid (pG5-tk-pGL3) and the expression vector for the chimeric protein (PPARα-Gal4 or PPARγ-Gal4). After incubating for 4 hours, whole culture medium (comprising 10% foetal calf serum) is added to the wells. After 24 hours, the medium is removed and replaced by whole medium comprising the test products (50 μM final).
(§4) The products are left in contact with the cells for 18 hours. The cells are then lysed and the luciferase activity is measured using a luminometer. A PPAR activation factor can then be calculated by means of the activation of the expression of the reporter gene induced by the product (relative to the control cells that have not received any product).

[2] = molecular target: T2, chimeric protein PPARγ-Gal4 (Homo sapiens, UniProt P37231); experiment: as above; conditions: 50 μM; CV-1 cells (monkey kidney cells); 18 hours contact; relative to control cells without product
T2 construct: expressed in transfected cells; host or cells: CV-1 cells (monkey kidney cells)
T2 sequence (P37231 238-503 limits assumed): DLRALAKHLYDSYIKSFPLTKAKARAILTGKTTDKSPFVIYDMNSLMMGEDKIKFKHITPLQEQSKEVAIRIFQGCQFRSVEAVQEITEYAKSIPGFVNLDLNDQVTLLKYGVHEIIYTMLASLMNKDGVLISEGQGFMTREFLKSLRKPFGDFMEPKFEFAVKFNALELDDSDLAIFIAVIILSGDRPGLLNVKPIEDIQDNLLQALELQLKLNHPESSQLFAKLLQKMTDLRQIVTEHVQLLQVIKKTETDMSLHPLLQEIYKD
Experimental: as §1, §2, §3, §4

[3] = molecular target: T3, vector expressing Gal4 alone (Saccharomyces cerevisiae, UniProt P04386); experiment: Luciferase reporter control without PPAR ligand binding region in CV-1 cells; conditions: absence of the binding region for the PPAR α or γ ligand (Gal4 alone)
T3 construct: expressed in transfected cells; host or cells: CV-1 cells (monkey kidney cells)
From the text: CV-1 cells (monkey kidney cells) are co-transfected with an expression vector for the chimeric proteins PPARα-Gal4 or PPARγ-Gal4 and with a “reporter” plasmid that allows the expression of the luciferase gene placed under the control of a promoter containing Gal4 response elements. The cells are inoculated in 96-well microplates and co-transfected using a commercial reagent with the reporter plasmid (pG5-tk-pGL3) and the expression vector for the chimeric protein (PPARα-Gal4 or PPARγ-Gal4). After incubating for 4 hours, whole culture medium (comprising 10% foetal calf serum) is added to the wells. After 24 hours, the medium is removed and replaced by whole medium comprising the test products (50 μM final). The products are left in contact with the cells for 18 hours. The cells are then lysed and the luciferase activity is measured using a luminometer. A PPAR activation factor can then be calculated by means of the activation of the expression of the reporter gene induced by the product (relative to the control cells that have not received any product). […] In the absence of the binding region for the PPAR α or γ ligand (vector expressing Gal4 alone), the luciferase activity measured in the presence of this product is zero.

T3 sequence (P04386 1-147 limits assumed): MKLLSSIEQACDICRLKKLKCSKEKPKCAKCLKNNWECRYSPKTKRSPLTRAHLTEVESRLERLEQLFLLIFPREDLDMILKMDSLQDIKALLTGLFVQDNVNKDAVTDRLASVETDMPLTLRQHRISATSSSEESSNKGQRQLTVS

PPAR activation factor (activation of expression of the luciferase reporter gene) [1]: seven
PPAR activation factor (activation of expression of the luciferase reporter gene) [2]: five
luciferase activity measured in the presence of the product [3]: zero
SMILES: CCCC(C=CC(=O)c1cc(OC)ccc1OC)=CC(=O)OCC [Example 12, ethyl 6-(2,5-dimethoxyphenyl)-6-oxo-3-propylhexa-2,4-dienoate]
